Test results from BindingDB's records for doi:10.1021/jm00147a007 (1985).

Molecular target: Aminopeptidase N (Oryctolagus cuniculus) (UniProt P15541)
Experiment: Inhibitory activity against rabbit kidney aminopeptidase using 10 nM of [3H]Leu-enkephalin as substrate

Sequence of Aminopeptidase N (Oryctolagus cuniculus) (P15541 whole entry, looked up): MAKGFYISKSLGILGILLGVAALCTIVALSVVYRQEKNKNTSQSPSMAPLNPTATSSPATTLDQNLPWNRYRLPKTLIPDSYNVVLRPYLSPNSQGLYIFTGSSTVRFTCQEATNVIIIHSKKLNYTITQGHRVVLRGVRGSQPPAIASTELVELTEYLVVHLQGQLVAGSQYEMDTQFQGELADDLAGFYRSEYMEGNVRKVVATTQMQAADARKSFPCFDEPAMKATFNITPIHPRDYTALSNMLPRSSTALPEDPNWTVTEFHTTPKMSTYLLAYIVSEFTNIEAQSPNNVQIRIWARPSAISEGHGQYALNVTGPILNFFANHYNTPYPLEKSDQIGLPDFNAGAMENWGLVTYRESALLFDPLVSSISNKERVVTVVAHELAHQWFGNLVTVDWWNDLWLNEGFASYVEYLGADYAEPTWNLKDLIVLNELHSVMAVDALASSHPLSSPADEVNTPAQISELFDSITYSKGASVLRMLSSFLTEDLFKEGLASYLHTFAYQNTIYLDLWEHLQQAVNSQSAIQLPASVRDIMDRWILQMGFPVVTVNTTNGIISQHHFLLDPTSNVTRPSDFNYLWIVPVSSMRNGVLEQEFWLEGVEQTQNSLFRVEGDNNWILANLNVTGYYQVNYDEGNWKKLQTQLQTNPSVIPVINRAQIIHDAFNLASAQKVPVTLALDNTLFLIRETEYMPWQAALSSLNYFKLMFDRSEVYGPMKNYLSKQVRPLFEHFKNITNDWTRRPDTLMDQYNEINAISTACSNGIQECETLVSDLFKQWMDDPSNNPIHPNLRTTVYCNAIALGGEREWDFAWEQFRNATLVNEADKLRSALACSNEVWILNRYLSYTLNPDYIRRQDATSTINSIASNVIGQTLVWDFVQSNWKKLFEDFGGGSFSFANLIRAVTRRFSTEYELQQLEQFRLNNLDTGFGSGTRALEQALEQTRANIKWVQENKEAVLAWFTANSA

Row | IC50 [µM] | Structure (SMILES)
1 | 100 | O=C(O)CNC(=O)C(Cc1ccccc1)C(=O)NO (racemic)
2 | 0.71 | C[C@H](NC(=O)[C@@H](CC(=O)NO)Cc1ccccc1)C(=O)O (racemic) [(RS)-2-(2-Benzyl-3-hydroxycarbamoyl-propionylamino)-propionic acid]
3 | 25 | O=CN(O)C(Cc1ccccc1)C(=O)NCC(=O)O (centres undefined) [[2-(Formyl-hydroxy-amino)-3-phenyl-propionylamino]-acetic acid]
4 | 0.85 | O=CN(O)CC(Cc1ccccc1)C(=O)NCC(=O)O (centres undefined) [[2-Benzyl-3-(formyl-hydroxy-amino)-propionylamino]-acetic acid]
